Literature values, collected in US5594100A, “Epitope for prevention of type I diabetes” (Regents of the University of Colorado, priority 1995, dated 1997).

Tested on: islet-specific T cell lines and clones from islet-infiltrating lymphocytes
Settings: panel of nominally islet-specific lines and clones from female NOD mice

## porcine insulin: Porcine insulin (Sigma) used for testing specificity of insulin-specific T cell lines and clones
  T cell lines and clones responding to porcine insulin: 22 of 40
  percent of T cell lines and clones responding to porcine insulin: 55%
